One series has as its system carrageenin edema. Kind of series: Anti-inflammatory effect (carrageenin edema, hind paw, rat). The following applies: oral, 3 hours after carrageenin, read-out: anti-inflammatory effect (inhibition percentage of carrageenin edema). The format is in vivo, Wistar-strain male rats. How it is done:
A group of five Wistar-strain male rats (100-150 g) were orally administered with each test compound suspended in 0.5 % tragacanth-saline solution. After 30 minutes 0.5 %-1.0 % carrageenin suspended in the water for injection was injected subcutaneously to a hind paw. After 3 hours the carrageenin edema was measured by volume and the inhibition percentage was determined with respect to the results for the control animals. The inhibition percentages were shown with the notations as follows: […]

Series [1] deals with acetic acid writhing syndrome. Kind of series: Analgetic effect (acetic acid writhing, mouse). The series is classed as in vivo, dd-strain male mice. The following applies: oral, read-out: analgetic effect ED50 (95% C.L.). The text has this: Each test compound suspended in 0.5 % tragacanth-saline solution was orally administered to dd-strain male mice (18-20 g). After one hour 0.6 % acetic acid solution was intraperitoneally injected in a volume of […].

Another series concerns dd-strain male mice. The series is classed as in vivo. The following applies: mouse, 72 hours. How it is done: The lethal dose was estimated from the death of animals 72 hours after administration.
The next series has as its system righting reflex. Description: Central nervous system depressive effect (disappearance of righting reflex, mouse). The following applies: ip, read-out: CNS depressive effect (dose required for disappearance of righting reflex). The series is classed as in vivo, dd-strain male mice. How it is done: Each test compound suspended in 0.5 % tragacanth-saline solution was injected intraperitoneally to dd-strain male mice (16-24 g). The disappearance of righting reflex was observed under noiseless circumstances. The dose required for the dissappearance of righting reflex is indicated with the following notations: […]

Structures are written as SMILES. Like-named read-outs stand apart in the source and are kept apart here.

The source of these data is patent US4016166A, “1-Nitrophenylquinazoline-2,4(1H,3H)-diones” (Hisamitsu Pharmaceutical Co., Inc., priority 1973, dated 1977).

Take `CC(C)n1c(=O)c2ccccc2n(-c2cccc([N+](=O)[O-])c2)c1=O`: in the series with carrageenin edema, the inhibition in vivo at 10 mg/kg was 16 to 30% and the inhibition in vivo at 50 mg/kg was in the range of 46 to 60%. The ED50 in series [1] worked out at 2.9 mg/kg. The “acute toxicity (lethal dose)” value with dd-strain male mice (i.p.) is above 1000 mg/kg. In addition, in the series on dd-strain male mice (p.o.), the “acute toxicity (lethal dose)” value was above 2000 mg/kg. Further, the minimal effective dose in the series on righting reflex (mouse) was 30 to 100 mg/kg.
`O=c1c2ccccc2n(-c2cccc([N+](=O)[O-])c2)c(=O)n1CC1CC1`: in the series with carrageenin edema, the inhibition in vivo at 10 mg/kg was in the range of 31 to 45% and the inhibition in vivo at 50 mg/kg was in the range of 46 to 60%. Besides, in the series with dd-strain male mice (i.p.), the “acute toxicity (lethal dose)” value amounted to 1000 mg/kg. Besides, in the series with righting reflex (mouse), the minimal effective dose was in the range of 100 to 300 mg/kg.
With `C#CCn1c(=O)c2ccccc2n(-c2cccc([N+](=O)[O-])c2)c1=O`, in the series on carrageenin edema, the inhibition in vivo at 10 mg/kg was below 15% and the inhibition in vivo at 50 mg/kg was 31 to 45%. In addition, in series [1], the ED50 amounted to 40 mg/kg. Moreover, the “acute toxicity (lethal dose)” value in the series on dd-strain male mice (i.p.) is above 1000 mg/kg. Further, the “acute toxicity (lethal dose)” value in the series on dd-strain male mice (p.o.) is listed as above 2000 mg/kg. The minimal effective dose in the series with righting reflex (mouse) is above 1000 mg/kg.
As to `Cn1c(=O)c2ccccc2n(-c2cccc([N+](=O)[O-])c2)c1=O` [Compound 2, 1-(m-nitrophenyl)-3-methylquinazoline-2,4(1H, 3H)-dione], in the series on carrageenin edema, the inhibition in vivo at 10 mg/kg is 31 to 45% and the inhibition in vivo at 50 mg/kg fell in the range of 46 to 60%. The ED50 in series [1] worked out at 12.5 mg/kg. Also, the “acute toxicity (lethal dose)” value in the series with dd-strain male mice (i.p.) is recorded as above 1000 mg/kg. Moreover, in the series on dd-strain male mice (p.o.), the “acute toxicity (lethal dose)” value was above 2000 mg/kg. Further, the minimal effective dose with righting reflex (mouse) is 100 to 300 mg/kg.
On to `CCn1c(=O)c2ccccc2n(-c2cccc([N+](=O)[O-])c2)c1=O` [Compound 3, 1-(m-nitrophenyl)-3-ethylquinazoline-2,4(1H, 3H)-dione], for which the inhibition in vivo at 10 mg/kg with carrageenin edema was above 61%. For the same compound, the inhibition in vivo at 50 mg/kg in the series with carrageenin edema was above 61%. In series [1], the 50% effective dose (ED50) was 6 mg/kg. The “acute toxicity (lethal dose)” value in the series with dd-strain male mice (i.p.) is above 1000 mg/kg; in the series with dd-strain male mice (p.o.) it was above 2000 mg/kg. The minimal effective dose in the series on righting reflex (mouse) lay in the range of 30 to 100 mg/kg.
For the compound `CCCn1c(=O)c2ccccc2n(-c2cccc([N+](=O)[O-])c2)c1=O` [Compound 4, 1-(m-nitrophenyl)-3-propylquinazoline-2,4(1H,3H)-dione], in the series with carrageenin edema, the inhibition in vivo at 10 mg/kg is below 15% and the inhibition in vivo at 50 mg/kg fell in the range of 16 to 30%. Further, the median effective dose (ED50) in series [1] stood at 51 mg/kg. Moreover, in the series with dd-strain male mice (i.p.), the “acute toxicity (lethal dose)” value was 1000 mg/kg. Moreover, in the series with dd-strain male mice (p.o.), the “acute toxicity (lethal dose)” value is above 2000 mg/kg. The minimal effective dose with righting reflex (mouse) is above 1000 mg/kg.
For `C=CCn1c(=O)c2ccccc2n(-c2cccc([N+](=O)[O-])c2)c1=O` [Compound 6, 1-(m-nitrophenyl)-3-allylquinazoline-2,4(1H, 3H)-dione], in the series with carrageenin edema, the inhibition in vivo at 10 mg/kg fell in the range of 16 to 30% and the inhibition in vivo at 50 mg/kg was 31 to 45%. In addition, in series [1], the ED50 was above 100 mg/kg. Besides, the “acute toxicity (lethal dose)” value in the series with dd-strain male mice (i.p.) was above 1000 mg/kg. Moreover, in the series on dd-strain male mice (p.o.), the “acute toxicity (lethal dose)” value came out at 2000 mg/kg. For the same compound, the minimal effective dose in the series on righting reflex (mouse) was above 1000 mg/kg.
For `O=c1c2ccccc2n(-c2cccc([N+](=O)[O-])c2)c(=O)n1CCF` [Compound 10], in the series on carrageenin edema, the inhibition in vivo at 10 mg/kg is above 61% and the inhibition in vivo at 50 mg/kg was 46 to 60%. Further, the ED50 in series [1] came to 1.48 mg/kg. Further, in the series on dd-strain male mice (i.p.), the “acute toxicity (lethal dose)” value was above 1000 mg/kg. For the same compound, in the series on dd-strain male mice (p.o.), the “acute toxicity (lethal dose)” value is above 2000 mg/kg. Further, in the series with righting reflex (mouse), the minimal effective dose fell in the range of 30 to 100 mg/kg.
On to `O=c1c2ccccc2n(-c2cccc([N+](=O)[O-])c2)c(=O)n1CCCl` [Compound 11], for which the inhibition in vivo at 50 mg/kg with carrageenin edema was 16 to 30%. Also, in series [1], the ED50 is 5.5 mg/kg. Besides, the “acute toxicity (lethal dose)” value is reported as above 1000 mg/kg with dd-strain male mice (i.p.) and above 2000 mg/kg in the series on dd-strain male mice (p.o.). In the series with righting reflex (mouse), the minimal effective dose fell in the range of 100 to 300 mg/kg.
For `O=c1c2ccccc2n(-c2cccc([N+](=O)[O-])c2)c(=O)n1CC(F)(F)F` [Compound 12, 1-(m-nitrophenyl)-3-(2,2,2-trifluoroethyl) quinazoline-2,4(1H, 3H)-dione], the inhibition in vivo at 10 mg/kg in the series on carrageenin edema was 16 to 30%. The inhibition in vivo at 50 mg/kg in the series with carrageenin edema lay within 31 to 45%. Besides, the ED50 in series [1] came out at 44 mg/kg. For the same compound, the “acute toxicity (lethal dose)” value in the series with dd-strain male mice (i.p.) is above 1000 mg/kg; in the series with dd-strain male mice (p.o.) it was above 2000 mg/kg. In addition, the minimal effective dose in the series with righting reflex (mouse) is above 1000 mg/kg.
Take `O=c1c2ccccc2n(-c2cccc([N+](=O)[O-])c2)c(=O)n1CCO` [Compound 13]: the inhibition in vivo at 50 mg/kg with carrageenin edema was in the range of 31 to 45%. Further, in series [1], the 50% effective dose (ED50) was determined as 2.25 mg/kg. Also, in the series with dd-strain male mice (p.o.), the “acute toxicity (lethal dose)” value was found to be 2000 mg/kg. Besides, the minimal effective dose with righting reflex (mouse) was 10 to 30 mg/kg.
For `CCOCCn1c(=O)c2ccccc2n(-c2cccc([N+](=O)[O-])c2)c1=O` [Compound 16, 1-(m-nitrophenyl)-3-(2-ethoxyethyl)quinazoline-2,4(1H, 3H)-dione], in the series with carrageenin edema, the inhibition in vivo at 50 mg/kg is 16 to 30%. In addition, the 50% effective dose (ED50) in series [1] turned out to be 2.15 mg/kg. Further, the “acute toxicity (lethal dose)” value is given as above 1000 mg/kg in the series on dd-strain male mice (i.p.) and above 2000 mg/kg with dd-strain male mice (p.o.). The minimal effective dose in the series on righting reflex (mouse) was in the range of 30 to 100 mg/kg.
On the same counts, the results for `O=c1c2ccccc2n(-c2cccc([N+](=O)[O-])c2)c(=O)n1CCOCCO` [Compound 17] are 16 to 30%, 3.7 mg/kg, 1000 mg/kg, 2000 mg/kg and 30 to 100 mg/kg.
With `CC(=O)OCCn1c(=O)c2ccccc2n(-c2cccc([N+](=O)[O-])c2)c1=O` [Compound 18], the inhibition in vivo at 50 mg/kg with carrageenin edema is 16 to 30%. The median effective dose (ED50) in series [1] amounted to 1.7 mg/kg. Also, the entries for the “acute toxicity (lethal dose)” value in the series with dd-strain male mice (i.p.) and with dd-strain male mice (p.o.) were above 1000 mg/kg and 2000 mg/kg, respectively. In the series with righting reflex (mouse), the minimal effective dose was 10 to 30 mg/kg.
For `Cn1c(=O)c2ccccc2n(-c2cccc([N+](=O)[O-])c2)c1=S` [Compound 23], in the series with carrageenin edema, the inhibition in vivo at 10 mg/kg was below 15% and the inhibition in vivo at 50 mg/kg was in the range of 16 to 30%. The ED50 in series [1] is above 100 mg/kg. Further, the “acute toxicity (lethal dose)” value in the series on dd-strain male mice (i.p.) is above 1000 mg/kg. Besides, the minimal effective dose in the series with righting reflex (mouse) is above 1000 mg/kg.
As to `CCn1c(=O)c2ccccc2n(-c2cccc([N+](=O)[O-])c2)c1=S` [Compound 24, 1-(m-nitrophenyl)-3-ethyl-2-thio-4-oxo-1,2,3,4-tetrahydroquinazoline], in the series with carrageenin edema, the inhibition in vivo at 10 mg/kg lay in the range of 31 to 45% and the inhibition in vivo at 50 mg/kg is 46 to 60%. For the same compound, the ED50 in series [1] was 3.4 mg/kg. In addition, the “acute toxicity (lethal dose)” value with dd-strain male mice (i.p.) is above 1000 mg/kg. Moreover, in the series with righting reflex (mouse), the minimal effective dose was 300 to 1000 mg/kg.
Take `O=c1c2ccccc2n(-c2cccc([N+](=O)[O-])c2)c(=S)n1CC(F)(F)F` [Compound 26]: the inhibition in vivo at 50 mg/kg in the series on carrageenin edema is below 15%. Further, in series [1], the 50% effective dose (ED50) is above 100 mg/kg. Also, the “acute toxicity (lethal dose)” value in the series with dd-strain male mice (i.p.) is recorded as above 1000 mg/kg; in the series on dd-strain male mice (p.o.) it was above 2000 mg/kg. Moreover, in the series on righting reflex (mouse), the minimal effective dose is above 1000 mg/kg.
`CCn1c(=O)c2ccccc2n(-c2cccc(C(F)(F)F)c2)c1=O` [R1=drawing 18, R2=C2 H5, reference compound]: in the series on carrageenin edema, the inhibition in vivo at 10 mg/kg was below 15% and the inhibition in vivo at 50 mg/kg lay within 31 to 45%. For the same compound, in series [1], the ED50 is above 100 mg/kg. In addition, in the series on dd-strain male mice (i.p.), the “acute toxicity (lethal dose)” value was 456 mg/kg. Further, the “acute toxicity (lethal dose)” value with dd-strain male mice (p.o.) is above 4000 mg/kg. In addition, in the series on righting reflex (mouse), the minimal effective dose is above 1000 mg/kg.
`O=c1c2ccccc2n(-c2cccc(C(F)(F)F)c2)c(=O)n1CCO` [R1=drawing 18, R2=CH2 CH2 OH, reference compound]: in the series with carrageenin edema, the inhibition in vivo at 10 mg/kg is below 15% and the inhibition in vivo at 50 mg/kg lay in the range of 31 to 45%. In series [1], the median effective dose (ED50) came out at 35 mg/kg. In the series with dd-strain male mice (i.p.), the “acute toxicity (lethal dose)” value came to 200 mg/kg. Besides, in the series on dd-strain male mice (p.o.), the “acute toxicity (lethal dose)” value was determined as 970 mg/kg. In addition, in the series on righting reflex (mouse), the minimal effective dose fell in the range of 30 to 100 mg/kg.
With `O=C(O)c1ccccc1Nc1cccc(C(F)(F)F)c1` [flufenamic acid, reference compound], the minimal effective dose in the series on righting reflex (mouse) was above 1000 mg/kg.
In the case of `Cc1ccccc1-n1c(C)nc2ccccc2c1=O` [methaqualone, reference compound], the minimal effective dose in the series on righting reflex (Mus musculus) is 10 to 30 mg/kg.
Consider `CCCCC1C(=O)N(c2ccccc2)N(c2ccccc2)C1=O` [phenylbutazone, reference compound], for which, in the series with righting reflex (mouse), the minimal effective dose lay in the range of 300 to 1000 mg/kg.
